Data: ChEMBL document CHEMBL4342475, “Structure-Bioactivity Relationships of Lapatinib Derived Analogs against Schistosoma mansoni” (ACS Med Chem Lett, 2020)
Values after ≈ are worked out from the molar mass of the structure shown. Active and inactive are the calls of the source. No cut-off for these calls is given here.

What was measured:
Schistosoma mansoni [1] = assay: Antiparasitic activity against Schistosoma mansoni infected in Hamster assessed as severity score at 10 uM incubated for 48 hrs; assay type: functional, organism-based
Schistosoma mansoni [2] = assay: Antiparasitic activity against Schistosoma mansoni infected in Hamster assessed as severity score at 10 uM incubated for 1 hr; assay type: functional, organism-based
[3] = Cytotoxicity against human HepG2 cells assessed as reduction in cell viability 48 hrs by MTT assay; assay type: cell-based; conditions: read-out: TC50
Schistosoma mansoni [4] = assay: Antiparasitic activity against Schistosoma mansoni infected in Hamster assessed as severity score at 10 uM incubated for 5 hrs; assay type: functional, organism-based
Schistosoma mansoni [5] = assay: Antiparasitic activity against Schistosoma mansoni infected in Hamster assessed as severity score at 10 uM incubated for 24 hrs; assay type: functional, organism-based
[6] = Protein binding in human plasma at 1 uM by LC-MS/MS analysis; assay type: ADME, cell-free
[7] = Aqueous solubility of compound incubated for 24 hrs by LC-MS/MS analysis; assay type: physicochemical; conditions: for solubility: buffer, 24 h
[8] = Metabolic stability in human liver microsomes assessed as intrinsic clearance by LC-MS/MS analysis; assay type: ADME, Microsome

| SMILES | Activity (Schistosoma mansoni [1]) | Activity (Schistosoma mansoni [2]) | CC50 at 48 h [3] [µM] | Activity (Schistosoma mansoni [4]) | Activity (Schistosoma mansoni [5]) | PPB [6] [%] | solubility [7] [µM] | intrinsic clearance [8] [µL/min/mg] | solubility at 24 h ([7]; aqueous) [µM] |
| --- | --- | --- | --- | --- | --- | --- | --- | --- | --- |
| c1cc(-c2ccc3c(c2)ncc2c4ccccc4[nH]c32)cc(N2CCOCC2)c1 | inactive | inactive | 40 | inactive | inactive | – | – | – | – |
| CN1CCCN(c2ncc(-c3ccc4c(c3)ncc3c5ccccc5[nH]c43)cn2)CC1 | Active | inactive | 7.4 | inactive | inactive | – | – | – | – |
| COc1ccc(NC(=O)c2ccc(-c3ccc(S(=O)(=O)N4CCN(C)CC4)cc3)cc2O)cc1Cl | – | inactive | > 29 | inactive | inactive | – | – | – | – |
| COc1ccc(Nc2ccnc3cc(-c4ccc(S(=O)(=O)N5CCCN(C)CC5)cc4)ccc23)cc1Cl | inactive | inactive | 11 | inactive | inactive | – | – | – | – |
| CN1CCN(c2ncc(-c3ccc4c(NC5CCC(N(C)C)CC5)ccnc4c3)cn2)CC1 (stereo not drawn) | inactive | inactive | – | inactive | inactive | – | – | – | – |
| Cc1ccc2[nH]c3c4ccc(-c5cnc(N6CCCN(C)CC6)nc5)cc4ncc3c2c1 | Active | – | 4.7 | Active | Active | – | – | – | – |
| CCN1CCN(c2ncc(-c3ccc4c(Nc5cnccn5)ccnc4c3)cn2)CC1 | inactive | inactive | – | inactive | inactive | – | – | – | – |
| CN1CCN(c2ncc(-c3ccc4c(N[C@@H]5CCCC[C@H]5O)ccnc4c3)cn2)CC1 | inactive | inactive | – | inactive | inactive | – | – | – | – |
| CN1CCCN(c2ncc(-c3ccc4c(Nc5ccncn5)ccnc4c3)cn2)CC1 | inactive | inactive | > 37 | inactive | inactive | – | – | – | – |
| COc1ccc(Nc2ccnc3cc(-c4cnc(N5CCCN(C)CC5)nc4)ccc23)cc1Cl | Active | inactive | 6.8 | inactive | Active | – | – | – | – |
| COC(=O)C1CCCN1c1ncc(-c2ccc3c(Nc4cnccn4)ccnc3c2)cn1 (stereo not drawn) | Active | inactive | – | inactive | – | – | – | – | – |
| COc1ccc(NC(=O)c2ccc(-c3cnc(N4CCCN(C)CC4)nc3)cc2O)cc1Cl | Active | inactive | – | inactive | inactive | – | – | – | – |
| Cc1c(-c2cnc(N3CCCNCC3)nc2)ccc2c(Nc3cnccn3)ccnc12 | Active | inactive | > 3.7 | inactive | Active | 76 | 465 (≈ 192 µg/mL) | 41 | – |
| Cc1c(-c2cnc(N3CCN(C)CC3)nc2)ccc2c(Nc3cnccn3)ccnc12 | inactive | inactive | – | inactive | inactive | – | – | – | – |
| CN1CCCN(S(=O)(=O)c2ccc(-c3ccc4c(Nc5ccc(Cl)cn5)ccnc4c3)cc2)CC1 | inactive | inactive | 1.8 | inactive | inactive | – | – | – | – |
| COc1ccc(NC(=O)c2ccc(-c3cccc(N4CCOCC4)c3)cc2O)cc1Cl | Active | – | 35 | inactive | – | – | – | – | – |
| CCCN1CCCN(c2ncc(-c3cc4nccc(Nc5cnccn5)c4cc3C)cn2)CC1 | inactive | – | 7.6 | inactive | – | 88 | 480 (≈ 218 µg/mL) | 300 | – |
| Cc1cnc(Nc2ccnc3cc(-c4cnc(N5CCN(C)CC5)nc4)ccc23)cn1 | Active | inactive | 16 | Active | Active | – | – | – | – |
| CN1CCCN(c2ncc(-c3ccc4c(Nc5cnccn5)ccnc4c3)cn2)CC1 | inactive | inactive | – | inactive | inactive | – | – | – | – |
| CN(CCNc1ncc(-c2ccc3c(Nc4cnccn4)ccnc3c2)cn1)C(=O)OC(C)(C)C | Active | inactive | – | inactive | inactive | – | – | – | – |
| CCCN1CCCN(c2ncc(-c3ccc4c(Nc5cnccn5)ccnc4c3C)cn2)CC1 | Active | inactive | 12 | inactive | Active | 94 | 450 (≈ 205 µg/mL) | 300 | – |

| SMILES | Activity (Schistosoma mansoni [1]) | Activity (Schistosoma mansoni [2]) | CC50 at 48 h [3] [µM] | Activity (Schistosoma mansoni [4]) | Activity (Schistosoma mansoni [5]) | PPB [6] [%] | solubility [7] [µM] | intrinsic clearance [8] [µL/min/mg] | solubility at 24 h ([7]; aqueous) [µM] |
| --- | --- | --- | --- | --- | --- | --- | --- | --- | --- |
| CCN1CCCN(c2ncc(-c3ccc4c(Nc5cnccn5)ccnc4c3C)cn2)CC1 | inactive | inactive | 16 | inactive | inactive | 88 | 580 (≈ 256 µg/mL) | 160 | – |
| CN1C[C@H]2C[C@@H]1CN2c1ncc(-c2ccc3c(Nc4cnccn4)ccnc3c2)cn1 | inactive | inactive | – | inactive | inactive | – | – | – | – |
| CCN1CCCN(c2ncc(-c3cc4nccc(Nc5cnccn5)c4cc3C)cn2)CC1 | Active | – | 4.7 | Active | Active | 84 | 790 (≈ 348 µg/mL) | 300 | – |
| Cc1cnc(Nc2ccnc3cc(-c4cnc(N5CCCN(C)CC5)nc4)ccc23)cn1 | Active | inactive | – | inactive | – | – | – | – | – |
| CCCN1CCCN(c2ncc(-c3ccc4c(Nc5cnccn5)ccnc4c3)cn2)CC1 | inactive | inactive | 17 | inactive | inactive | – | – | – | – |
| CN1CCN(c2ncc(-c3ccc4c(NCCN5CCCC5)ccnc4c3)cn2)CC1 | inactive | inactive | – | inactive | inactive | – | – | – | – |
| Cc1cc2c(Nc3cnccn3)ccnc2cc1-c1cnc(N2CCCN(C)CC2)nc1 | Active | Active | 7.6 | Active | Active | 82 | 670 (≈ 286 µg/mL) | 260 | – |
| CC(C)(C)OC(=O)N1CCN(c2ncc(-c3ccc4c(Nc5cnccn5)ccnc4c3)cn2)CC1 | inactive | inactive | – | inactive | inactive | – | – | – | – |
| CCN1CCCN(c2ncc(-c3ccc4c(Nc5cnccn5)ccnc4c3)cn2)CC1 | inactive | inactive | > 36 | inactive | inactive | – | – | – | – |
| Cc1cc2c(Nc3cnccn3)ccnc2cc1-c1cnc(N2CCN(C)CC2)nc1 | Active | inactive | – | – | Active | – | – | 130 | […] |
| CN1CCN(c2ncc(-c3ccc4c(NC5CCOCC5)ccnc4c3)cn2)CC1 | inactive | inactive | – | inactive | inactive | – | – | – | – |
| COc1ccc(NC(=O)c2ccc(-c3cnc(N4CCN(C)CC4)nc3)cc2O)cc1Cl | – | inactive | 27 | inactive | inactive | – | – | – | – |
| COc1ccc(NC(=O)c2ccc(-c3cccc(N4CCOCC4)c3)cc2N)cc1Cl | inactive | inactive | 35 | inactive | inactive | – | – | – | – |
| CCCN1CCN(c2ncc(-c3ccc4c(Nc5cnccn5)ccnc4c3)cn2)CC1 | Active | inactive | – | inactive | inactive | – | – | – | – |
| c1cnc(Nc2ccnc3cc(-c4cnc(N5CCCNCC5)nc4)ccc23)cn1 | inactive | inactive | 25 | inactive | inactive | – | – | – | – |
| O=C(O)C1CCCN1c1ncc(-c2ccc3c(Nc4cnccn4)ccnc3c2)cn1 (stereo not drawn) | inactive | inactive | – | inactive | inactive | – | – | – | – |
| Cc1c(-c2cnc(N3CCCN(C)CC3)nc2)ccc2c(Nc3cnccn3)ccnc12 | inactive | inactive | – | inactive | inactive | 82 | 860 (≈ 367 µg/mL) | 120 | – |
| O=C(O)CN1CCN(c2ncc(-c3ccc4c(Nc5cnccn5)ccnc4c3)cn2)CC1 | inactive | inactive | > 30 | inactive | inactive | – | – | – | – |
| CN1CCN(c2ncc(-c3ccc4c(Nc5cnccn5)ccnc4c3)cn2)CC1 | inactive | inactive | – | inactive | inactive | – | – | – | – |
| CN1CCN(c2ncc(-c3ccc4c(NCC5CCOCC5)ccnc4c3)cn2)CC1 | inactive | inactive | – | inactive | inactive | – | – | – | – |
